Laboratory results published in BindingDB's records for doi:10.1016/j.bmcl.2016.12.057 (University of Auckland, 2017).

Assay: Inhibition of recombinant perforin (unknown origin) assessed as decrease in lysis of 51Cr-labelled human Jurkat cells by measuring 51Cr release preincubated for 30 mins followed by cell line addition measured after 4 hrs in presence of 0.1% BSA by gamma counting method

SMILES | IC50
O=C1NCCc2ccc(-c3ccc(-c4cncc(NS(=O)(=O)c5ccc(F)cc5F)c4)s3)cc21 | > 20 µM
O=C1NCCc2cc(-c3ccc(-c4cncc(NS(=O)(=O)c5ccc(F)cc5F)c4)s3)ccc21 | > 20 µM
CN1Cc2cc(-c3nc(-c4cncc(NS(=O)(=O)c5ccc(F)cc5F)c4)cs3)ccc2C1=O | > 20 µM

The remaining lines, values ahead:

IC50 | SMILES
> 20 µM | CN1CCc2cc(-c3ccc(-c4cncc(NS(=O)(=O)c5ccc(F)cc5F)c4)s3)ccc2C1=O
> 20 µM | CC1c2cc(-c3ccc(-c4cncc(NS(=O)(=O)c5ccc(F)cc5F)c4)s3)ccc2C(=O)N1C (stereo not given)
